{"source": "paper PMC9186351", "about": "“Discovery of N-quinazolinone-4-hydroxy-2-quinolone-3-carboxamides as DNA gyrase B-targeted antibacterial agents” (Journal of Enzyme Inhibition and Medicinal Chemistry, 2022)", "key": {"[1]": {"assay": "Mouse microsomal stability assay", "type": "in vitro ADME", "settings": "mouse, microsomes, pH 7.4", "protocol": "The mouse liver microsomes were purchased from BioreclamationIVT and stored at −80 °C. The working solutions (0.2 mM) of the control compound, i.e. dextromethorphan, and the test compound dissolved in DMSO were prepared. Terfenadine (5 ng/mL) and tolbutamide (10 ng/mL) dissolved in acetonitrile were used as two quenching solutions. NADPH was dissolved in the phosphate buffer (50 mM K2HPO4, pH 7.4) at 5 mM. The mouse liver microsomes were thawed at 37 °C. The concentration of the stock solution was 20 mg/mL. The working solution (0.629 mg/mL) was prepared by dilution in phosphate buffer.\nThe working solution of the control/test compound (1.5 µL) was mixed with the liver microsome working solution (238.5 µL) in a 96-well plate and pre-incubated at 37 °C for 5 min. The 5 mM NADPH working solution (60 µL) was added to the solution to initiate the metabolic reaction. At each time point (0, 5, 15, 30, and 60 for the control/test compound), 30 µL of the reaction mixture was sampled and moved to 300 µL of quenching solutions. When the sampling was done, each sample was centrifuged at 4000 rpm at 4 °C for 15 min. The supernatant was analysed with the same HPLC system as the plasma stability assay. The residues (%) of the test/control compound along with the incubation time were calculated based on which the half-life (t1/2) value was determined."}, "[2]": {"tested_on": "vancomycin intermediate resistant S. aureus (VISA)", "assay": "MIC by broth microdilution, VISA strains", "type": "cell-based", "settings": "Staphylococcus aureus, read-out: MIC", "protocol": "All of the bacterial strains used in this study were obtained from the Collection Centre of Pathogen Microorganism of Chinese Academy of Medical Sciences (CAMS-CCPM-A) in China. All of the isolates were stored at −80 °C and streaked on tryptic soy agar (TSA) plates to obtain overnight cultures. The MICs of the test compounds were determined by the broth microdilution method in accordance with the Clinical and Laboratory Standards Institute (CLSI) guidelines.[20] Cation-adjusted Mueller-Hinton broth (CAMHB) was used as the growth medium for MIC assays. Briefly, 100 μL of serially diluted compounds (starting concentrations were 64 μg/mL) in CAMH broth were added to the wells of 96-well microtiter plates. Then, 10 µL of 5 × 10^6 CFU/mL bacterial culture was added to each well. […] The MIC was defined as the lowest concentration of a compound that inhibited visual growth of the bacteria. Vancomycin was set as the positive control for this assay."}, "[3]": {"assay": "Cytotoxicity, SRB assay, HepG2", "type": "cell-based, human", "settings": "human, HepG2 cells, 72-h treatment (footnote), read-out: In vitro cytotoxicity CC50 (μM, mean ± SD)", "protocol": "(§1) Cytotoxicity in terms of CC50 was determined by the SRB assay according to the protocol described in our previous publication.[16] Briefly, human HUVECs or HepG2 cells were seeded in the wells of 96-well plates at a concentration of 1 × 10^5 cells per well and incubated at 37 °C for 24 h. […] The cells were fixed with 10% trichloroacetic acid (w/v) at 4 °C for 1 h, washed five times with distilled water, and stained with 0.4% SRB solution at room temperature for another 20 min. The cells were then washed five times with 1% acetic acid and air-dried. The protein-bound dye was dissolved in 10 mM Tris-base solution and shaken for 5 min. The optical density (OD) was measured at 540 nm using a microplate reader to estimate the cell viability (%). With the viability values (%) of the cells treated by the compound at different concentrations as input, the CC50 value was determined by the non-linear regression with normalised dose-response fit implemented in GraphPad Prism version 5 software (GraphPad Software Inc., La Jolla, CA). The experiment was performed in duplicate, and paclitaxel was used as the positive drug for this assay."}, "[4]": {"tested_on": "HepG2 cells", "assay": "Cytotoxicity, SRB assay, HepG2", "type": "cell-based, human", "settings": "72-h treatment (footnote), read-out: In vitro cytotoxicity CC50 (μM, mean ± SD)", "protocol": "as §1"}}, "note": "Like-named read-outs stand apart in the source and are kept apart here.", "data": [{"smiles": "CCCCCc1nc2ccccc2c(=O)n1NC(=O)c1c(O)c2ccccc2n(CC)c1=O", "note": "[f1, N-(4-oxo-2-pentylquinazolin-3(4H)-yl)-1-ethyl-4-hydroxy-2-oxo-1,2-dihydroquinoline-3-carboxamide]", "values": [{"measurement": "half-life at 1 µM", "setting": "[1]", "result": 24.5, "unit": "min"}, {"measurement": "MIC", "setting": "[2]; ATCC 700699 / VISA, VISA ATCC 700699", "result": 8, "unit": "µg/mL"}, {"measurement": "MIC", "setting": "[2]; VISA, VISA HIP 5827", "result": 4, "unit": "µg/mL"}, {"measurement": "MIC", "setting": "[2]; VISA, VISA HIP 5836", "result": 16, "unit": "µg/mL"}, {"measurement": "CC50 at 72 h", "setting": "[3]", "result": "~50", "unit": "µM"}, {"measurement": "CC50", "setting": "[4]", "result": "49.6 ± 0.2", "unit": "µM"}]}]}
